Experimental data: US7038047B2, “Substituted 6-(2-methoxyphenyl) triazolopyrimides as fungicides” (BASF Aktiengesellschaft, priority 2001, dated 2006)

Legend:
Cercospora beticola = experiment: Fungicidal control of leaf spot on beets (Cercospora beticola), protective spray on sugar beet seedlings; format: in vivo; settings: sugar beet seedlings ACH-31, sprayed before inoculation, untreated plants infected to 90%
Experimental: The active compounds, separately or together, were formulated as a 10% emulsion in a mixture of 70% by weight of cyclohexanone, 20% by weight of Nekanil® LN (Lutensol® AP6, wetting agent having emulsifying and dispersant action based on ethoxylated alkylphenols) and 10% by weight of Wettol® EM (nonionic emulsifier based on ethoxylated castor oil) and diluted with water to the desired concentration. Young sugar beet seedlings of the cultivar “ACH-31” were grown in pots to the 2 to 4 leaf stage. These plants were sprayed to runoff with an aqueous suspension, containing the concentration of active ingredient mentioned in the table below, prepared from a stock solution containing 5% of the active ingredient, 94% cyclohexanone and 1% emulsifier (Tween 20). After the plants had dried (3–5 h), they were inoculated with a spore suspension of Cercospora beticola in an aqueous solution of 0.5% gelatine. Then the trial plants were immediately transferred to a humid chamber with 18–23° C. and a relative humidity close to 100% and kept there for 5 days. For a period of further 10–14 days a cultivation in a greenhouse followed at 21–23° C. and a relative humidity about 95%. Then the extent of fungal attack on the leaves was visually assessed as % diseased leaf area.

[1] = system: cucumber mildew (Sphaerotheca fuliginea); experiment: Protective action on cucumber mildew, cucumber seedlings; format: in vivo; settings: 250 ppm, inoculated 20 hours after spraying, assessed after 7 days, untreated plants infected to 90%
Description: The active compounds, separately or together, were formulated as a 10% emulsion in a mixture of 70% by weight of cyclohexanone, 20% by weight of Nekanil® LN (Lutensol® AP6, wetting agent having emulsifying and dispersant action based on ethoxylated alkylphenols) and 10% by weight of Wettol® EM (nonionic emulsifier based on ethoxylated castor oil) and diluted with water to the desired concentration.
Leaves of pot grown cucumber seedlings of the “Chinesische Schlange” variety were sprayed to runoff with aqueous liquors made from a stock solution consisting of 10% of active ingredient, 85% of cyclohexanone, and 5% of emulsifier. 20 hours after the sprays-on layer had dried, the plants were inoculated with a aqueous spore suspension of cucumber mildew (Sphaerotheca fuliginea). The plants were then placed for 7 days in the greenhouse at 20 to 24° C. and a relative humidity of 60 to 80%. The extent of fungus spread was assessed as %-attack of the whole leaf surface.

Compound | infection (% diseased leaf area) (Cercospora beticola; 50 ppm) | infection (% diseased leaf area) (Cercospora beticola; 200 ppm) | infection (%-attack of the whole leaf surface) [1]
COc1cc(F)cc(F)c1-c1c(Cl)nc2ncnn2c1NC(C)C(F)(F)F (stereo not drawn) [I-38, 5-chloro-6-(4,6-difluoro-2-methoxyphenyl)-7-(1,1,1-trifluoroprop-2-yl)amino-[1,2,4]-triazolo[1,5-α]pyrimidine] | not more than 7% | not more than 7% | 
COc1cc(F)cc(F)c1-c1c(Cl)nc2ncnn2c1NC(C)C(F)(F)F (stereo not drawn) [I-38B, 5-chloro-6-(4,6-difluoro-2-methoxyphenyl)-7-(1,1,1-trifluoroprop-2-yl)amino-[1,2,4]-triazolo[1,5-α]pyrimidine] |  |  | no infection
